Each molecule was assayed against T1, CCR2 (Homo sapiens, UniProt P41597) (assay: CCR2 receptor membrane binding assay ([125I]MCP-1, THP-1 membranes, SPA beads)). Conditions: THP-1 cell membranes, [125I]MCP-1 displacement, dissociation constant hKi.
T1 construct: Membranes were prepared from THP-1 cells; endogenous in cells; host or cells: THP-1 (human acute monocytic leukaemia cells), membrane preparation
T1 sequence (P41597 1-360 isoform P41597-2): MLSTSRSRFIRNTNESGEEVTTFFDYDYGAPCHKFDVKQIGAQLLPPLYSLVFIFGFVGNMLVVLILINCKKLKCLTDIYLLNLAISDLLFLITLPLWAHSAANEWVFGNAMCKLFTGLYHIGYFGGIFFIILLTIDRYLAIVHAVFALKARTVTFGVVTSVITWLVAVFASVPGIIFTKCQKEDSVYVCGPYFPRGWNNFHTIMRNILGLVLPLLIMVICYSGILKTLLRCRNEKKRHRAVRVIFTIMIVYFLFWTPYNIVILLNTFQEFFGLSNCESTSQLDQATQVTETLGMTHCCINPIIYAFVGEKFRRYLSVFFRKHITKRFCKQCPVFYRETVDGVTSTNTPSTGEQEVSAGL
Experimental: The above exemplary substances have been tested for binding to CCR2 using a binding assay as outlined herein below:
THP-1 cells (human acute monocytic leukaemia cells) were cultured under standardized conditions at 37° C. and 5% CO2 in a humidified incubator. THP-1 cells were cultivated in RPMI 1640 medium (Gibco 21875) containing 1% MEM-NEAA (Gibso 11140) 2 mM L-glutamine, 1.5 g/L sodium bicarbonate, 4.5 g/L glucose, 10 mM HEPES and 1.0 mM sodium pyruvate, 90%; 10% fetal calf serum (FCS Gibco 10500-064).
Membranes were prepared from THP-1 cells. THP-1 cells were centrifuged at 300×g at 4° C. for 10 min. The cell pellet was resuspendet in Phosphate Buffer Saline (PBS, including 10 μM Pefabloc and a protease inhibitor mix ‘complete’, Boehringer Mannheim (1 tablet/50 ml)), to a concentration of […]. The membrane preparation was performed by disrupting the cells by nitrogen […] (at 50 bar, for 1 h) in a “Nitrogen Bombe” (Parr Instrument). Cell debris was removed by centrifugation (800×g at 4° C., 1 min). The supernatant was centrifuged at 80000×g, 4° C. for 30 min to sediment the cell membranes. Usually 50 mg of protein (Bradford assay) were yielded from 1×10E9 cells. The membranes were resuspendet in 25 mM HEPES, 25 mM MgCl2, 1 mM CaCl2, 10% Glycerine for storage in aliquots at −80° C. in 25 mM HEPES, 25 mM MgCl2, 1 mM CaCl2, 10% Glycerine and stored at −80° C.
Perkin Elmer NEX 332 Jod 125 MCP-1, Stock: 2200 Ci/mmol solved in 2000 μl assay buffer, stored at −20° C. THP-1 membrane were adjusted with 25 mM HEPES, pH 7.2; 5 mM MgCl2; 0.5 mM CaCl2; 0.2% BSA assay buffer to a concentration of 2.5 μg/15 μl. Amersham Biosciences PVT-WGA Beads (RPNQ0001) were adjusted with assay buffer to a concentration of 0.24 mg/30 μl. For preparation of the membrane-bead-suspension membranes and beads were incubated for 30 min at RT under rotation (60 rpm) with a ratio of 1:2. Test compounds dissolved in 100% DMSO to a concentration of 10 mM and are further diluted with 100% DMSO to 1 mM. All additional compound dilutions were obtained with assay buffer, final 1% DMSO. Compounds, membrane-bead-suspension and [125I]MCP-1 (ca. 25000 cpm/10 μl) were incubated. Bound radioactivity was determined by scintillation counter after 8 h. Determination of affinity of test compounds (dissociation constant hKi) is calculated by iterative fitting of experimental data using the “easy sys” program, which is based on law of mass action (Schittkowski K. (1994), Numerische Mathematik, Vol. 68, 129-142).

Ki | Structure (SMILES)
9 nM | CN(C1CCN(C2CCN(C(=O)c3ncnc(NC[C@H]4CCC[C@@H](c5ccccc5)C4)c3C3CC3)CC2)CC1)S(C)(=O)=O [Example 1]
82 nM | CN(C1CCN(C2CCN(C(=O)c3ncnc(NCc4ccc(C(C)(C)C)cc4)c3C3CC3)CC2)CC1)S(C)(=O)=O [Example 2]
5 nM | COc1c(NC[C@H]2CCC[C@@H](c3ccccc3)C2)ncnc1C(=O)N1CCC(N2CCC(N(C)S(C)(=O)=O)CC2)CC1 [Example 3]
15 nM | COc1c(NCC2CCCC(c3ccccc3)C2)ncnc1C(=O)N1CCC(N2CCC(N(C)S(C)(=O)=O)CC2)CC1 (centres unmarked) [Example 4]
84 nM | COc1c(NC[C@H]2CCC[C@@H](c3ccc(C)cc3)O2)ncnc1C(=O)N1CCC(N2CCC(N(C)S(C)(=O)=O)CC2)CC1 [Example 5]
18 nM | COc1c(NC[C@H]2CCC[C@@H](c3ccc(C)cc3)O2)ncnc1C(=O)N1CCC(N[C@@H]2CCOC[C@@H]2OC)CC1 [Example 6]
13 nM | COc1c(NC[C@H]2CCC[C@@H](c3ccc(C)cc3)O2)ncnc1C(=O)N1CCC(N[C@H]2CCOC[C@H]2OC)CC1 [Example 7]
73 nM | COc1c(NC[C@H]2CCC[C@@H](c3cccc(C)c3)O2)ncnc1C(=O)N1CCC(N2CCC(N(C)S(C)(=O)=O)CC2)CC1 [Example 8]
25 nM | COc1c(NC[C@H]2CCC[C@@H](c3cccc(C)c3)O2)ncnc1C(=O)N1CCC(N[C@@H]2CCOC[C@@H]2OC)CC1 [Example 9]
19 nM | COc1c(NC[C@H]2CCC[C@@H](c3cccc(C)c3)O2)ncnc1C(=O)N1CCC(N[C@H]2CCOC[C@H]2OC)CC1 [Example 10]
121 nM | COc1c(NCc2ccc(C(C)(C)C)cc2)ncnc1C(=O)N1CCC(N2CCC(N(C)S(C)(=O)=O)CC2)CC1 [Example 10a]
162 nM | COc1c(NC[C@@H]2CCC[C@H](c3ccc(Cl)cc3)O2)ncnc1C(=O)N1CCC(N[C@@H]2CCOC[C@@H]2OC)CC1 [Example 10b]
377 nM | COc1c(NC[C@@H]2CCC[C@H](c3ccc(Cl)cc3)O2)ncnc1C(=O)N1CCC(N2CCC(N(C)S(C)(=O)=O)CC2)CC1 [Example 10c]
120 nM | COc1c(NC[C@@H]2CCC[C@H](c3ccc(Cl)cc3)O2)ncnc1C(=O)N1CCC(N[C@H]2CCOC[C@H]2OC)CC1 [Example 10d]
10 nM | COc1c(NC[C@H]2CCC[C@@H](c3ccc(Cl)cc3)O2)ncnc1C(=O)N1CCC(N[C@@H]2CCOC[C@@H]2OC)CC1 [Example 10e]
60 nM | COc1c(NC[C@H]2CCC[C@@H](c3ccc(Cl)cc3)O2)ncnc1C(=O)N1CCC(N2CCC(N(C)S(C)(=O)=O)CC2)CC1 [Example 10f]
7 nM | COc1c(NC[C@H]2CCC[C@@H](c3ccc(Cl)cc3)O2)ncnc1C(=O)N1CCC(N[C@H]2CCOC[C@H]2OC)CC1 [Example 10g]
1 nM | COc1c(NC[C@H]2CCC[C@@H](c3ccc(C(F)(F)F)cc3)O2)ncnc1C(=O)N1CCC(N[C@H]2CCOC[C@H]2OC)CC1 [Example 10h]
3 nM | COc1c(NC[C@H]2CCC[C@@H](c3ccc(C(F)(F)F)cc3)O2)ncnc1C(=O)N1CCC(N[C@@H]2CCOC[C@@H]2OC)CC1 [Example 10i]
1 nM | COc1c(NC[C@H]2CCC[C@@H](c3ccc(OC(F)(F)F)cc3)O2)ncnc1C(=O)N1CCC(N[C@H]2CCOC[C@H]2OC)CC1 [Example 10j]
2 nM | COc1c(NC[C@H]2CCC[C@@H](c3ccc(OC(F)(F)F)cc3)O2)ncnc1C(=O)N1CCC(N[C@@H]2CCOC[C@@H]2OC)CC1 [Example 10k]
4 nM | COc1c(NC[C@H]2CCC[C@@H](c3ccc(C(F)(F)F)cc3)O2)ncnc1C(=O)N1CCC(NC2CCOCC2F)CC1 (some centres unmarked) [Example 10l]
1 nM | COc1c(NC[C@H]2CCC[C@@H](c3ccc(OC(F)(F)F)cc3)O2)ncnc1C(=O)N1CCC(NC2CCOCC2F)CC1 (some centres unmarked) [Example 10m]
12 nM | COc1c(NC[C@H]2CCC[C@@H](c3ccccc3)C2)ncnc1C(=O)N1CCC(N[C@@H]2CCOC[C@@H]2OC)CC1 [Example 11]
5 nM | COc1c(NC[C@H]2CCC[C@@H](c3ccccc3)C2)ncnc1C(=O)N1CCC(N[C@H]2CCOC[C@H]2OC)CC1 [Example 12]
5 nM | COc1c(NC[C@H]2CCC[C@@H](c3ccccc3)C2)ncnc1C(=O)N1CCC(NC2CCOCC2OC)CC1 (some centres unmarked) [Example 13]
16 nM | COc1c(NC[C@H]2CCC[C@@H](c3ccccc3)C2)ncnc1C(=O)N1CCC(N(C)C2CCOCC2OC)CC1 (some centres unmarked) [Example 14]
13 nM | COc1c(NC[C@H]2CCC[C@@H](c3ccc(C)cc3)O2)ccnc1C(=O)N1CCC(N[C@H]2CCOC[C@H]2OC)CC1 [Example 15]
22 nM | COc1c(NC[C@H]2CCC[C@@H](c3ccc(C)cc3)O2)ccnc1C(=O)N1CCC(N[C@@H]2CCOC[C@@H]2OC)CC1 [Example 16]

Source: patent US20130143905A1, “NOVEL ANTAGONISTS FOR CCR2 AND USES THEREOF” (BOEHRINGER INGELHEIM INTERNATIONAL GMBH, priority 2009, published 2013)
